Assay results published in patent US20240425464A1, “Substituted Monohydrazides as Potent Antifungal Agents” (University of Kentucky Research Foundation, priority 2023, published 2024).

Columns and labels:
Assay in all cases: MIC determination by in vitro antifungal assay
[1] = test system: Aspergillus fumigatus NRRL 163 (Q); format: cell-based; details: Aspergillus fumigatus, NRRL163; strain Q = A. fumigatus NRRL 163; read-out: MIC
Procedure, shortened: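 Twofold dilutions spanning 0.06–31.3 μg/mL were incubated with fungi for 48 h at 35° C in MOPS-buffered RPMI 1640 (pH 7.0), following modified CLSI M27-A3 and M38-A2 methods. Yeast cells were grown overnight in YPD, set to OD600 0.12 (~1×10^6 CFU/mL), then diluted 1:100.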

[2] = test system: A. fumigatus NRRL 5109 (R); format: cell-based, Aspergillus fumigatus; details: Aspergillus fumigatus, NRRL5109; strain R = A. fumigatus NRRL 5109; read-out: MIC
Experimental: (§1) 10 mg/mL stock solutions of compounds 1a-9j were prepared in dimethyl sulfoxide (DMSO) and were stored at −20° C. in the dark. The antifungal agent amphotericin B (AmB) was purchased from VWR (Radnor PA, USA). AmB was dissolved in DMSO at a final concentration of 5 mg/mL and was stored at −20° C., protected from light. Candida albicans American Type Culture Collection (ATCC) 10231 (strain A), C. albicans ATCC 64124 (B), and C. albicans ATCC MYA-2876 (C) were obtained from Utah State University. C. albicans ATCC 90819 (D), C. albicans ATCC MYA-2310 (E), C. albicans ATCC MYA-1237 (F), C. albicans ATCC MYA-1003 (G), Candida glabrata ATCC 2001 (H), Candida krusei ATCC 6258 (I), Candida parapsilosis ATCC 22019 (J), Cryptococcus neoformans ATCC MYA-895 (M), Aspergillus terreus ATCC MYA-3633 (N), and Aspergillus flavus ATCC MYA-3631 (0) were obtained from the American Type Culture Collection (ATCC; Manassas, VA, USA). Aspergillus nidulans ATCC 38163 (P) was obtained from University of Kentucky. Clinically derived Aspergillus fumigatus NRRL 163 (Q), A. fumigatus NRRL 5109 (R), and A. fumigatus NRRL 6113 (S) were obtained from Northern Regional Research Laboratory (NRRL). Candida auris 384 (K), C. auris 390 (L), and fungal strains 381-400 (including 10 C. auris (AR Bank #381-390), 3 Candida duobushaemulonii (AR Bank #391, AR Bank #392, and AR Bank #394), 2 Candida haemulonii (AR Bank #393 and AR Bank #395), 1 Kodameae ohmeri (AR Bank #396), 1 C. krusei (AR Bank #397), 1 Candida lusitaniae (AR Bank #398), and 2 Saccharomyces cerevisiae strains (AR Bank #399 and AR Bank #400)) were part of a larger fungal library from the AR Bank maintained by the Centers for Disease Control and Prevention (CDC; Atlanta, GA, USA). Filamentous fungi and yeasts were cultivated at 35° C. in RPMI 1640 medium (with L-glutamine, without sodium bicarbonate, Sigma-Aldrich, St. Louis, MO) buffered to a pH of 7.0 with 0.165 M morpholinepropanesulfonic acid (MOPS) buffer (Sigma-Aldrich). For cytotoxicity assays, HepG2 and the mouse macrophage cell line J774A.1 were obtained from University of Kentucky. The human embryonic kidney cell line, HEK-293, was bought from the ATCC. Mammalian cells were grown in Dulbecco's Modified Eagle's Medium (DMEM) (from VWR) with 10% fetal bovine serum (FBS) (from VWR) and 1% Pen/Strep (from ATCC). Cell lines were cultured at 37° C. with 5% CO2 and passaged by trypsinization with 0.05% trypsin: 0.53 mM EDTA (from Sigma-Aldrich).
(§2) The MIC values of compounds 1a-9j against yeast cells (strains A-P and 381-400) were determined in 96-well plates as described in the CLSI documents M27-A3 and M38-A2 with minor modifications.^2 A single colony of freshly prepared yeast cells was used to inoculate 5 mL of yeast extract peptone dextrose (YPD) broth prior to incubation overnight with shaking at 200 rpm at 35° C. From the actively growing yeast culture, 100 µL were then transferred to 900 μL of RPMI 1640 medium and re-adjusted to achieve OD600 of 0.12 (˜1×10^6 CFU/mL). The cell suspension was further diluted to achieve 1:100 in RPMI 1640 medium. 100 μL of cells were added to the wells of a 96-well microtiter plates that contained 100 µL of the compound solution to obtain concentrations of 0.06-31.3 μg/mL of compounds 1a-9j or AmB prior to incubation for 48 h at 35° C.
(§3) Finally, the activity of these monohydrazides was explored against […] non-Candida strains: Cryptococcus neoformans ATCC MYA-895 (M), Aspergillus terreus ATCC MYA-3633 (N), Aspergillus flavus ATCC MYA-3631 (O), Aspergillus nidulans ATCC 38163 (P), Aspergillus fumigatus NRRL 163 (Q), A. fumigatus NRRL 5109 (R), and A. fumigatus NRRL 6113 (S) (Tables 1A and 1B). The double dilution method was used with concentrations ranging from 0.06 to 31.3 j·tg mL^−1 for monohydrazides 1a-9j, and the commercially available positive antifungal control amphotericin B (AmB).

[3] = test system: A. fumigatus NRRL 6113 (S); format: cell-based, Aspergillus fumigatus; details: Aspergillus fumigatus, NRRL6113; strain S = A. fumigatus NRRL 6113; read-out: MIC
Experimental: as §1, §2, §3

Measured: MIC

O=C(NNc1ccc(F)cc1F)c1cnccn1 [Compound 9g]
> 31.3 mg/L: all assays above
